In article PMC8049054, “Systematic Assessment of Fragment Identification for Multitarget Drug Design” (Chemmedchem, 2021):

Tested on: T1, soluble epoxide hydrolase (sEH)
T1 construct: For the expression of sEH-H and sEH-Fl transformed E.coli BL21 (DE3) cells were grown in 5052; made in house; host or cells: E. coli BL21 (DE3)
Assay: Differential scanning fluorimetry (DSF) screen on sEH
Format: binding
Settings: 500 μM fragment, mean of duplicates
Source text: For the primary screen of this fragment library, we employed differential scanning fluorimetry (DSF, also known as thermal shift). DSF is generally applicable to a large panel of protein targets and provides a robust, low‐cost screening technology for fragment‐based approaches. ^[20] All five proteins of our interest are soluble and were recombinantly expressed in Escherichia coli. We performed an initial fragment screen on all five targets by DSF. The use of a uniform screening method for all targets ensured consistent data and provided the opportunity to identify false positive hits which interfered with the screening technology. The conditions of the DSF assay were optimized for the desired screening and validated with reference compounds (Table S1 in the Supporting Information). Compounds causing a positive thermal shift ΔT m≥1.0 °C were considered as active.
DSF measurement of the PDFL (single concentration of 500 μM, duplicates, 96‐well format) on the five proteins retrieved 19 fragment hits on sEH, 28 on LTA4H, 12 on 5‐LOX, 16 on RXRα, and 14 on FXR, respectively. Melting point distributions of the screening library for all five targets are depicted in Figure 2. Amongst the hits, three compounds (Table S2) gave a positive signal on all five proteins likely qualifying them as pan assay interference compounds (PAINS). ^[21] Fragments binding to multiple targets (Scheme 1) were identified for seven out of ten target combinations (Figure 2, Table 1). Among them, fragments 4, 6, 7, and 9 match previously identified privileged scaffolds for fatty acid mimetics. ^[14] […] Active ligands containing N‐phenylbenzamide 6 and the N‐phenylbenzylamine 7 have been described for four of the protein targets. Furthermore, indole, which has been characterized as a privileged heterocycle for fatty acid mimetics, ^[14] is present in fragments 5 and 10. Dual 5‐LOX/RXR ligand 1 was present in 5‐LOX inhibitors, while dual FXR/LTA4H modulator 3 is found among known FXR ligands. Fragments 2 (sEH/5‐LOX) and 8 (LTA4H/RXR) are novel scaffolds not appearing in known ligands of any of the five targets.
Figure S3: SDS page of the purified proteins (proteins RXRα and FXR after TEV cleavage) using a 14% polyacrylamide gel, which was stained with coomassi. Precision Plus Protein™ Unstained Protein Standard s (Bio-Rad Laboratories, Inc. ) was used […]
All experiments were performed as duplicates using MicroAmp fast 96 -well plates. Each plate contained 80 different compound wells and 16 DMSO control wells. First 0.8 µl of a 25 mM Preswick Library Fragment dilution in DMSO or pure DMSO were placed in each of the well (final concentration 500 µM). Then 39.2 µl of the master mi x (containing protein, Triton x -100, SYPRO® Orange Protein Gel Stain and buffer that corresponds to the tested protein) were added.
Table S4: Final concentrations in DSF experiments:
Protein Final concentrations under screening conditions […]
glycerol, 0.01% (W/V) Triton X-100, 2.05 % DMSO and 2.5x SYPRO® with a pH = 7 […]
The measurements were performed using a iCycler iQ™ Single -Color Real Time PCR device with a heat rate of 1 °C per min, an excitation wavelength of 490 nm and an emission wavelength of 570 nm. The first derivation calculated by MyiQ Op tical Software 1.0 was analyzed using Microsoft Office Excel 2013 by comparing the maxima. A shift of 1 °C (in case of 5 -LOX 0.9°C) or more compared to the DMSO control were assumed as potentially binding of the fragment.
(1 picture or pasted object on this page, not shown here)

In order of falling “DSF/ΔT m sEH” value:
1. Cc1cc(=O)n(-c2ccc(C)c(C)c2)[nH]1 [Compound 2]  2.2±0.0 °C
2. Cc1ccccc1C(=O)Nc1ccccc1 [Compound 6]  2.0±0.0 °C
3. CCN(Cc1ccccc1)c1ccccc1 [Compound 7]  1.0±0.0 °C
4. Oc1ccc(-c2ccc(F)cc2F)cc1 [Compound 9]  1.0±0.0 °C
5. Fc1ccc(-c2c[nH]c3ccccc23)cc1 [Compound 10]  0.6±0.7 °C
6. c1ccc(N2CCNCC2)nc1 [Compound 1]  0.0±0.0 °C
7. CCCCOc1cc(C(=O)OC)ccc1N [Compound 3]  0.0±0.0 °C
8. Oc1ccc(Cc2ccccc2)cc1 [Compound 4]  0.0±0.0 °C
9. Oc1ccc2cc[nH]c2c1 [Compound 5]  0.0±0.0 °C
